In ChEMBL document CHEMBL1201862, “PubChem BioAssay data set” (2004):
Active and inactive are the calls of the source.

Experiments:
Leucine aminopeptidase = biological target: T1, Leucine aminopeptidase (Plasmodium falciparum 3D7, UniProt Q8IL11); assay: P. falciparum M17LAP inhibitors, primary screen, biochemical, fluorogenic H-Leu-NHMec substrate, 1536-well (AID 1619); assay type: functional
T1 sequence (Q8IL11 whole entry): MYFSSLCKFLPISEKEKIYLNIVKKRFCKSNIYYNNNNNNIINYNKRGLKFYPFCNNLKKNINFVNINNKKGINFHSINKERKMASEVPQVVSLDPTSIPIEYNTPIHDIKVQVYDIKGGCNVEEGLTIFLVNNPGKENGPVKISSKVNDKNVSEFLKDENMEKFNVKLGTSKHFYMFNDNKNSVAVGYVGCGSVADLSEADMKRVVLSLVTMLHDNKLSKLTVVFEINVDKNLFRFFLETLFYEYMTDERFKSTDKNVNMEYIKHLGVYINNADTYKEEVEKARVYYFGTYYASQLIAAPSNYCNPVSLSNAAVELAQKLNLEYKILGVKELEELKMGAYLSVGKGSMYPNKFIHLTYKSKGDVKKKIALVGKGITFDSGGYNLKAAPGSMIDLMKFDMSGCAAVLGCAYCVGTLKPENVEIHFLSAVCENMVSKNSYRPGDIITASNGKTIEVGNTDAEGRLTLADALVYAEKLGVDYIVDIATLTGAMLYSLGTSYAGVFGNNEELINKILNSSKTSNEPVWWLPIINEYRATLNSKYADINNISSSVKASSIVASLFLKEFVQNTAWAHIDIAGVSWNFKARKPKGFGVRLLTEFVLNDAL

Caspase-6 = biological target: T2, Caspase-6 (Homo sapiens, UniProt P55212); assay: inhibition of CASP6 peptide cleavage – biochemical, VEID-R110 fluorescence, cherry-pick, dose response (AID 720632)
T2 sequence (P55212 whole entry): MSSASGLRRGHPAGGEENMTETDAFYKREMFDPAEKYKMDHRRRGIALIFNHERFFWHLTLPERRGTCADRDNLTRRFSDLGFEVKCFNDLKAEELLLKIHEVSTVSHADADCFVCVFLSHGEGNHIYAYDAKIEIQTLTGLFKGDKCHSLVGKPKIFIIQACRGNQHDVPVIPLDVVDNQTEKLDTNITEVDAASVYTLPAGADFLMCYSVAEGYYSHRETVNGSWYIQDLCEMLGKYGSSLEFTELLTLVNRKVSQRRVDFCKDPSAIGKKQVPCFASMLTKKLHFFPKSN

[1] = biological target: T3, Trace amine-associated receptor 1 (Homo sapiens, UniProt Q96RJ0); assay: Counterscreen for agonists of the human trace amine associated receptor 1 (hTAAR1): Fluorescence-based cell-based high throughput dose response assay to identify hTAAR1 agonist that also desensitize TAAR1 receptor response.; assay type: functional
T3 sequence (Q96RJ0 whole entry): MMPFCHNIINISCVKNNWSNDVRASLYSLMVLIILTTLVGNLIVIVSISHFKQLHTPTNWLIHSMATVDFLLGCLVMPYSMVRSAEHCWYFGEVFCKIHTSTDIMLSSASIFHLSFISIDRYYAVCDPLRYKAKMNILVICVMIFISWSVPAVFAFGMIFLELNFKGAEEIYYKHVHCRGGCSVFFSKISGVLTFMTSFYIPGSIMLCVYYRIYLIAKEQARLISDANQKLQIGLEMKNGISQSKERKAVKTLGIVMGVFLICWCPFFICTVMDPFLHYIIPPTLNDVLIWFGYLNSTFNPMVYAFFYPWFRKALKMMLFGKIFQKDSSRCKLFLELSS

[2] = biological target: T3, Trace amine-associated receptor 1; assay: Fluorescence-based cell-based high throughput dose response assay to identify agonists of the human trace amine associated receptor 1 (TAAR1).; assay type: functional
cells [3] = assay type: functional, cell-based
cells [4] = assay type: functional, cell-based; remark: listed apart in the source
Aminopeptidase N = biological target: T4, Aminopeptidase N (Plasmodium falciparum FcB1/Columbia, UniProt O96935); assay: malaria alanyl aminopeptidase activity blockers – biochemical, fluorogenic H-Leu-NHMec substrate, 1536-well (AID 1445); parameters: species or system Plasmodium falciparum 3D7, 3D7
T4 sequence (O96935 whole entry): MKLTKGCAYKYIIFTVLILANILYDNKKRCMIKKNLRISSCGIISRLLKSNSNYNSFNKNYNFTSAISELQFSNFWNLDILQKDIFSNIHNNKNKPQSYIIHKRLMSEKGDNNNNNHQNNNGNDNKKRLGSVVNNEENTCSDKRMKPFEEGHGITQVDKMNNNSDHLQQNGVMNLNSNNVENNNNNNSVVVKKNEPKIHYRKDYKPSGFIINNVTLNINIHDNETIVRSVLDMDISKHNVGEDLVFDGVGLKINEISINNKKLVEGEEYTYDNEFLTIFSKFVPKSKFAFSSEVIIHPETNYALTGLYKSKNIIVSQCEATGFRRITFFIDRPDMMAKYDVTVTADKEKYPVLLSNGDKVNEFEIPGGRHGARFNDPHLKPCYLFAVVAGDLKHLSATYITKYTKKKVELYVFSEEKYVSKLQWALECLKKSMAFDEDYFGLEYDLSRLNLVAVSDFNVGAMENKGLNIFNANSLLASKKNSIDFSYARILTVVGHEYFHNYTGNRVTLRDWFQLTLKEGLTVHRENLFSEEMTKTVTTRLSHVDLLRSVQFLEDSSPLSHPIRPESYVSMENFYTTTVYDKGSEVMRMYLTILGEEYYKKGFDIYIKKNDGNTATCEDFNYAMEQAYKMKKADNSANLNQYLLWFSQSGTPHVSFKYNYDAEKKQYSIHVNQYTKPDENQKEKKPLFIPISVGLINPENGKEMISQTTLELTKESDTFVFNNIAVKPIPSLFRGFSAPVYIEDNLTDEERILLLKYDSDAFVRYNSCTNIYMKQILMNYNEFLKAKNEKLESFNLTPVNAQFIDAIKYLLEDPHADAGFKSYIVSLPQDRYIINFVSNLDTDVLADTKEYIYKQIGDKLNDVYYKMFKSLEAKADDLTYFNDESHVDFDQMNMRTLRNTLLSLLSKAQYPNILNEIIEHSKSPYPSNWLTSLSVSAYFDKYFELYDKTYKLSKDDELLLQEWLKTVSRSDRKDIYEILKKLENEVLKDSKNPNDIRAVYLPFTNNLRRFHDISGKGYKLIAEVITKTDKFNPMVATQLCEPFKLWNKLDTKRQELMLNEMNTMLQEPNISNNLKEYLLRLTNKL

[5] = biological target: T5, 1-phosphatidylinositol 4,5-bisphosphate phosphodiesterase gamma-1 (Homo sapiens, UniProt P19174); assay: Counterscreen for inhibitors of phospholipase C isozymes (PLC-B3): Fluorescence-based biochemical high throughput dose response assay to identify inhibitors of phospholipase C isozymes (PLC-gamma1).
T5 sequence (P19174 whole entry): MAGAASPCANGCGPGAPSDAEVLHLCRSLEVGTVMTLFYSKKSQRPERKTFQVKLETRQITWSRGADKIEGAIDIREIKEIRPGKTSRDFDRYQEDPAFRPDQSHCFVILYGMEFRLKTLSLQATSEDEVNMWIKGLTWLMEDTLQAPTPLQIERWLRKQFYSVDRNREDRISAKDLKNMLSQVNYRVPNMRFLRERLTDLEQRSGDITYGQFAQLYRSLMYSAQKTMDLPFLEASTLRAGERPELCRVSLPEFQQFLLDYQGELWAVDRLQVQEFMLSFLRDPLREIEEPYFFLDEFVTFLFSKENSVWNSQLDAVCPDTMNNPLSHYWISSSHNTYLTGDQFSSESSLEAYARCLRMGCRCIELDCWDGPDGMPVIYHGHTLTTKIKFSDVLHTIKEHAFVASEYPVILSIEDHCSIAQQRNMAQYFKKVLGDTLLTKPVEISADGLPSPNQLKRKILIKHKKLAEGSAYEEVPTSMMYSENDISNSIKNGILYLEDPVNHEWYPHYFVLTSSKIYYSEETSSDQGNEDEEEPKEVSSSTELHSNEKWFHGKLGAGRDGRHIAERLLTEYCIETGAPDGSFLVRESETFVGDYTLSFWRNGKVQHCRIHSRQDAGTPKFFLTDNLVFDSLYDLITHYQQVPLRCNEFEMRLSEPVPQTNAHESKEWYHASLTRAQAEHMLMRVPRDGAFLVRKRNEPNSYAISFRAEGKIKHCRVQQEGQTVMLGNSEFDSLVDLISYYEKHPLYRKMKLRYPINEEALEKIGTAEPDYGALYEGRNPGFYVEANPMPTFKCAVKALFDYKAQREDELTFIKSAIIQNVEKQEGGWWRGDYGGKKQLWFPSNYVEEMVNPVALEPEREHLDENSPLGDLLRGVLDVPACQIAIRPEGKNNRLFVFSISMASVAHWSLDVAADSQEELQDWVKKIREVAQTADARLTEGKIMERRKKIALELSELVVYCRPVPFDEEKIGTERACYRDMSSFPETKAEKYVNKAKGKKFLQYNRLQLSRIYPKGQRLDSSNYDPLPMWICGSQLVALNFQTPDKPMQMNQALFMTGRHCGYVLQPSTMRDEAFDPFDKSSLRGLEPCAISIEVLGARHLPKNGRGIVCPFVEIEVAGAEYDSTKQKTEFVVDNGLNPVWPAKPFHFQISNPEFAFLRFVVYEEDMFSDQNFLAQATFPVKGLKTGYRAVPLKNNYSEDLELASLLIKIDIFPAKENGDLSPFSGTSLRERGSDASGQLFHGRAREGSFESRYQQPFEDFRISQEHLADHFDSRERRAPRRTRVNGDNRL

[6] = biological target: T6, 1-phosphatidylinositol 4,5-bisphosphate phosphodiesterase beta-3 (Homo sapiens, UniProt Q01970); assay: Fluorescence-based biochemical high throughput dose response assay to identify inhibitors of phospholipase C isozymes (PLC-B3).
T6 sequence (Q01970 whole entry): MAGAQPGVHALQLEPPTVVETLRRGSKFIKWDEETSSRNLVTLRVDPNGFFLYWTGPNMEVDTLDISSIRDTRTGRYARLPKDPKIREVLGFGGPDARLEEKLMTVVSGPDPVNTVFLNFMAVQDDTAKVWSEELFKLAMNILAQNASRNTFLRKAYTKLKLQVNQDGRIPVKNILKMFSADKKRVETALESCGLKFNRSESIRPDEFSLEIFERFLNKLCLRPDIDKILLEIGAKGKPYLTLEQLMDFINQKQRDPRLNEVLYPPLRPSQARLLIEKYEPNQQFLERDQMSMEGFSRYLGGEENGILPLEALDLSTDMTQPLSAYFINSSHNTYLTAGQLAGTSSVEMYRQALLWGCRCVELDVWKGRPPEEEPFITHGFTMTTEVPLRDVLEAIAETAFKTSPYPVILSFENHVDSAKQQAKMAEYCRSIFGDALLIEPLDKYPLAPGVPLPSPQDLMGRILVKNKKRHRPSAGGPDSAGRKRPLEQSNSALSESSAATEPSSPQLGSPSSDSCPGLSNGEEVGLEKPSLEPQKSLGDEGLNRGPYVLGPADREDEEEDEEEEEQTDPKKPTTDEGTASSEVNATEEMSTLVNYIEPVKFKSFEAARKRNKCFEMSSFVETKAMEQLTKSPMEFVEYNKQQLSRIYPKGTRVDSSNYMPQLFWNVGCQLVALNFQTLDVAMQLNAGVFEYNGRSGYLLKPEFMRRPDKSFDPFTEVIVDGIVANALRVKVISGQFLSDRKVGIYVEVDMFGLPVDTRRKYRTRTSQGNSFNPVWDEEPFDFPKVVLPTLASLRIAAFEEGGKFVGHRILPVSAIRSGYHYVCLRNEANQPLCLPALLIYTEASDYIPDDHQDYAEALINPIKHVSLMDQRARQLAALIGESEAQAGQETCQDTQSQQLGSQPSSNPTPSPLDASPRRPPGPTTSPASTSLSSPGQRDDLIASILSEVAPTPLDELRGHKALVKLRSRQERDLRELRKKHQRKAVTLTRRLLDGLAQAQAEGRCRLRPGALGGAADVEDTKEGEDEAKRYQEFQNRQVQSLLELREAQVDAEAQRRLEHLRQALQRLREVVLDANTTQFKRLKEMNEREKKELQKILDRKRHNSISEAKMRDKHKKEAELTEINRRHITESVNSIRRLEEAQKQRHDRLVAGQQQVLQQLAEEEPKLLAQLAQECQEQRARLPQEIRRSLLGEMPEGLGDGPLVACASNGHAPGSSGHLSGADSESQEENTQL

[7] = OVCAR-3 cell viability loss – plate reader, dry powder samples, PAX8 inhibitor project, dose response (AID 743044); assay type: functional, cell-based
[8] = reduced cellular PGC1a acetyl-lysine signal – cell-based, cherry-picked samples, dose response (AID 720514); assay type: functional;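 also: potency may reflect raised or lowered acetylation signal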
[9] = IGROV1 cell killing – plate reader, dry powder samples, PAX8 inhibitor project, dose response (AID 743043); assay type: functional, cell-based; conditions: IGROV-1
[10] = toxicity toward immortalized ovarian surface epithelium – cell-based, plate reader, dry powder samples, cytotoxicity control for PAX8 inhibitor project, dose response (AID 743045); assay type: functional

SMILES | IC50 [1] | EC50 [2] | EC50 (cells [3]) | IC50 (cells [4]) | further results
O=C(O)CCC(=O)Nc1sc2c(c1C(=O)Nc1ccccc1)CCCCC2 |  |  |  |  | IC50 (Leucine aminopeptidase): 47 µM (active); AC50 (Caspase-6): 45 µM (active)
Cc1ccnc(NC(=O)Nc2ccc3c(c2)OCO3)c1 | > 29.9 µM (inactive) | > 29.9 µM (inactive) | > 29.9 µM (inactive) | > 29.9 µM (inactive) | 
COc1ccc(/C=C2\SC(=S)NC2=O)cc1OS(=O)(=O)c1ccc(NC(C)=O)cc1 |  |  |  |  | IC50 (Aminopeptidase N): 29.8 µM (active); AC50 (Caspase-6): 17 µM (active)
Cc1cccc(CCNCc2cc3cc(C)cc(C)c3nc2O)c1 | 1.84 µM (active) | 0.73 µM (active) | > 29.9 µM (inactive) | > 29.9 µM (inactive) | 
O=C(O)C1CCCCC1C(=O)NCCc1ccc(F)cc1 (centres undefined) | 8.15 µM (active) | 1.39 µM (active) | > 29.9 µM (inactive) | > 29.9 µM (inactive) | 
CC(C)(C)c1ccc(CNc2nc(-c3ccccn3)nnc2-c2ccccc2)cc1 |  |  |  |  | IC50 [5]: > 122 µM (inactive); IC50 [6]: > 122 µM (inactive)
COc1cccc(-c2ccc([C@@H]3[C@@H]4CN(Cc5cccc(F)c5)C[C@H]3N4)cc2)c1 |  |  |  |  | AC50 [7]: 24.4 µM (active); AC50 [8]: 4.26 µM (active); AC50 [9]: 34 µM (active); AC50 [10]: 36 µM (active)
O=S(=O)(CS(=O)(=O)c1ccccc1Br)c1ccccc1Br |  |  |  |  | IC50 [5]: 44.7 µM (inactive); IC50 [6]: > 122 µM (inactive)
